Laboratory results: patent US20220144850A1, “INDOLO HEPTAMYL OXIME ANALOGUE AS PARP INHIBITOR” (Chia Tai Tianqing Pharmaceutical Group Co., Ltd., priority 2019, published 2022)

How the values were obtained:
[1] = test system: BRCA1-mutated MDA-MB-436 cells; assay: Anti-proliferation experiment on MDA-MB-436 CTG cells; type: cell-based, human; conditions: 7 days incubation, CellTiter-Glo
Procedure: Experimental Example 2: Anti-Proliferation Experiment on MDA-MB-436 CTG Cells
Experimental materials: test compounds; RPMI-1640 medium; fetal bovine serum; penicillin/streptomycin antibiotic; MDA-MB-436 cell line; Envision multi-marker analyzer (PerkinElmer).
MDA-MB-436 cells were seeded in a white 96-well plate by adding 80 μL of cell suspension (containing 3000 MDA-MB-436 cells) to each well. The cell plate was incubated in a CO2 incubator overnight.
Test compounds were serially 5-fold diluted to the 8th concentration with a multichannel pipette, i.e. from 2 mM to 26 nM, and a duplicate well experiment was performed. 78 μL of medium was added to a intermediate plate, 2 μL of each of serially diluted compounds was transferred to corresponding wells of the intermediate plate, and after mixing, the mixture was transferred to the cell plate at 20 μL per well. The cell plate was incubated in a CO2 incubator for 7 days. Another cell plate was provided for reading signal values on the day of compound addition and these signal values were used as Max values in data analysis. Promega CellTiter-Glo was added to this cell plate at 25 μL per well and the luminescence signals were stabilized by incubation for 10 min at room temperature. Readings were taken using a PerkinElmer Envision multi-marker analyzer.
Promega CellTiter-Glo was added to the cell plate at 25 μL per well and the luminescence signals were stabilized by incubation for 10 min at room temperature. Readings were taken using a PerkinElmer Envision multi-marker analyzer.
2. Data analysis: the original data was converted to inhibition using the equation (sample−Min)/(Max−Min)×100%, and the IC50 value was then curve fitted using four parameters (obtained from the “log(inhibitor) vs. response-variable slope” model in GraphPad Prism). Table 2 provides the inhibitory activity of the compounds disclosed herein against MDA-MB-436 cell proliferation.

[2] = Plasma protein binding rate, SD rat plasma (equilibrium dialysis); type: in vitro ADME; conditions: Sprague-Dawley, SD rats plasma, dialysis 4 h at 37° C.
Procedure: Experimental Example 5: Study on Plasma Protein Binding Rate
The protein binding rates of the compounds disclosed herein in plasma of human, CD-1 mice and SD rats were determined. 796 μL of blank plasma was taken from human, CD-1 mice and SD rats, and added with 4 μL of test compound working solution (400. μM) or warfarin working solution (400 μM) to achieve a final concentration of 2 μM of both the test compound and the warfarin in the plasma sample. The samples were mixed well. The final concentration of organic phase DMSO was 0.5%; 50 μL of test compound and warfarin plasma sample was pipetted into a sample receiving plate (three parallels), and a corresponding volume of blank plasma or buffer was immediately added such that the final volume of each sample well was 100 μL. The volume ratio of plasma to dialysis buffer was 1:1, and 400 μL of stop solution was added to these samples, which were used as TO samples for determination of recovery rate and stability. The TO samples were stored at 2-8° C. for subsequent treatment with other dialyzed samples; 150 μL of the test compound and warfarin plasma sample was added to a drug delivery end of each dialysis well, and 150 μL of blank dialysis buffer was added to a corresponding receiving end of the dialysis well. The dialysis plate was then sealed with a gas permeable membrane and placed in a humid, 5% CO2 incubator and incubated at 37° C. for 4 h while shaking at about 100 rpm. After the dialysis was completed, 50 μL of the dialyzed buffer sample and dialyzed plasma sample were pipetted to a new sample receiving plate. A corresponding volume of corresponding blank plasma or buffer was added to the samples such that the final volume of each sample well was 100 μL, and the volume ratio of plasma to dialysis buffer was 1:1. All samples were subjected to LC/MS analysis after protein precipitation, and the protein binding rates and the recovery rates were calculated by the following formulas: protein unbinding rate (%)=100×drug concentration passing through dialysis membrane/drug concentration not passing through dialysate; protein binding rate (%)=100−protein unbinding rate (%); recovery rate (%)=100×(drug concentration passing through dialysis membrane+drug concentration not passing through dialysate)/total drug concentration before dialysis.

[3] = Metabolic stability in liver microsomes, mouse; type: in vitro ADME; conditions: Mouse liver microsomes 0.5 mg/mL, 1 μM compound, NADPH, 37° C.
Procedure: Experimental Example 7. Metabolic Stability in Liver Microsomes
Experimental objective: to test the metabolic stability of test compounds in liver microsomes of three species.
Experimental method: 1 μM test compound and a microsome (0.5 mg/mL) were incubated at 37° C. in the presence of an NADPH regeneration system; positive controls were testosterone (3A4 substrate), propylamine propiophenone (2D6 substrate) and diclofenac (2C9 substrate), and also at 37° C., a positive control was incubated with a microsome (0.5 mg/mL) in the presence of an NADPH regenerating system; the reaction was stopped by direct mixing of the sample with cold acetonitrile containing an internal standard at various time points (0, 5, 10, 20, 30 and 60 min); the compound and microsome were incubated for 60 min in the absence of an NADPH regenerating system; one parallel (n=1) was set at each time point; the samples were analyzed by LC/MS/MS; the concentration of the compound was characterized by the ratio of the analyte peak area to the internal standard peak area.

CYP2D6 = molecular target: T1, CYP2D6 (Homo sapiens, UniProt P10635); assay: Inhibition against cytochrome P450 isoenzyme, human liver microsomes; type: in vitro ADME
T1 construct: a human liver microsome solution; from tissue; host or cells: human liver microsomes
Procedure: (§1) Experimental Example 6: Study on Inhibition Against Cytochrome P450 Isoenzyme
(§2) The inhibition of the test compounds against different subtypes of the human cytochrome P450 isoenzyme was determined. Test compounds, a standard inhibitor (100×final concentration) and a mixed substrate working solution were prepared; the microsomes frozen in a refrigerator at −80° C. were taken out and thawed. 2 μL of a solution of the test compound and the standard inhibitor was added to corresponding wells, and 2 μL of a corresponding solvent was added to a non-inhibitor control (NIC) well and a blank control (Blank) well; then, 20 μL of a solution of mixed substrate was added to corresponding wells except for the Blank well (adding 20 μL of PB to the Blank well); a human liver microsome solution (marking the date after use and immediately putting back to a refrigerator) was prepared and then added to all wells at 158 μL per well; the sample plate was put into a 37° C. water bath for pre-incubation, and then a coenzyme factor (NADPH) solution was prepared; after 10 min, the NADPH solution was added to all the wells at 20 μL per well, and the sample plate was shaken to mix the mixture well and then incubated in a 37° C. water bath for 10 min; at corresponding time points, 400 μL of cold acetonitrile solution (internal standard: 200 ng/mL tolbutamide and labetalol) was added to stop the reaction; after being mixed well, the mixture in the sample plate was centrifuged at 4,000 rpm for 20 min to precipitate proteins; 200 μL of supernatant was collected and added into 100 μL of water, and the mixture was mixed well and then assayed by LC/MS/MS.

CYP3A4-M = molecular target: T2, CYP3A4-M (Homo sapiens, UniProt P08684); assay: as above; type: in vitro ADME
T2 construct: a human liver microsome solution; from tissue; host or cells: human liver microsomes
Procedure: as §1, §2

CYP2C19 = molecular target: T3, CYP2C19 (Homo sapiens, UniProt P33261); assay: as above; type: in vitro ADME
T3 construct: a human liver microsome solution; from tissue; host or cells: human liver microsomes
Procedure: as §1, §2

[4] = Homo sapiens, MDA-MB-436, 168 h

T1 sequence (P10635 whole entry): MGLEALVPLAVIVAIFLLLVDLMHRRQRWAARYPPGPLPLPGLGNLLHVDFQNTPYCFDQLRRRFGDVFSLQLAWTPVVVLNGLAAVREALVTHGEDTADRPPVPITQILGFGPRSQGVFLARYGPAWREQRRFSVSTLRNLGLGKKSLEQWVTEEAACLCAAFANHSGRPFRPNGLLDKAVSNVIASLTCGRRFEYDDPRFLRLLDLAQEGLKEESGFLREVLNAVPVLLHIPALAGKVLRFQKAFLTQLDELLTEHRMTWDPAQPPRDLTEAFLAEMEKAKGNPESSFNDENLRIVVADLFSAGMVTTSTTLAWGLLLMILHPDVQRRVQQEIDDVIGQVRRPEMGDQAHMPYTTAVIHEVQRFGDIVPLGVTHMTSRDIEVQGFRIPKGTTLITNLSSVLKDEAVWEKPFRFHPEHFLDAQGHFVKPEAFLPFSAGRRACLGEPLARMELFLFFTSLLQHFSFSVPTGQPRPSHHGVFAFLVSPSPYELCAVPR
T2 sequence (P08684 whole entry): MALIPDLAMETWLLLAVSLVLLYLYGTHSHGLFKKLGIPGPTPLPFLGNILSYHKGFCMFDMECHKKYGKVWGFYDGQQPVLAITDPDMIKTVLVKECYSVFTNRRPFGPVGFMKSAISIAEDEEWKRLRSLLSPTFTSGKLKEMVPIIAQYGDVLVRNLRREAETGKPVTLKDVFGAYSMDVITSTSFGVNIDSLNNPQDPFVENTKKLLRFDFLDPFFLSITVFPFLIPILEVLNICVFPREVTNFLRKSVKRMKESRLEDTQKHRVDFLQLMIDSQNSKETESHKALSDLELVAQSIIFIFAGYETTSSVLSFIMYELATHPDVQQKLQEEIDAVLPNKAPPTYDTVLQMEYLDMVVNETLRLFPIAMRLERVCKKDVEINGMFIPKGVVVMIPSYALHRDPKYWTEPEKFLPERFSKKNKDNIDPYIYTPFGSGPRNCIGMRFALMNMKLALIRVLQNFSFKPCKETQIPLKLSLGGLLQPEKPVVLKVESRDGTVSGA
T3 sequence (P33261 whole entry): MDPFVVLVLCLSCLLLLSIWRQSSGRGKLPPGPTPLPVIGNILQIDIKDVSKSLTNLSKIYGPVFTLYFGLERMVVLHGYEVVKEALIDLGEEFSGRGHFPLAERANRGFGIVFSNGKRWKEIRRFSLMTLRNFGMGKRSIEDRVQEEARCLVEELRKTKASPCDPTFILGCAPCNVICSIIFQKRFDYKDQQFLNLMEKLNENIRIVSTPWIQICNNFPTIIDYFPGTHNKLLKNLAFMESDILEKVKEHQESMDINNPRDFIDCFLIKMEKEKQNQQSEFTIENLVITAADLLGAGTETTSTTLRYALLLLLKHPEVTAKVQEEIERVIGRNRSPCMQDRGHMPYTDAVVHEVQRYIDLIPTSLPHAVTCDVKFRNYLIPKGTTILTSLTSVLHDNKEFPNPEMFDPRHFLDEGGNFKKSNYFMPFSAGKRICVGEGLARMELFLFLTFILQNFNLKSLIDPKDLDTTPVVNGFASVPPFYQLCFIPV

| IC50 [1] | fraction unbound at 4 h, 2 μM [2] | Residual content after 60 min of incubation [3] | IC50 (CYP2D6) | IC50 (CYP3A4-M) | IC50 (CYP2C19) | IC50 [1, 4] | Compound |
| --- | --- | --- | --- | --- | --- | --- | --- |
| 0.0096 µM | 0.036 | 52.3% | 6.98 µM | > 50 µM | 17.2 µM |  | O=C1NOCc2c(-c3ccc(C4CCCN4)cc3)[nH]c3cc(F)cc1c23 (single isomer, unassigned) [Example 24_A] |
| 0.0084 µM | 0.097 | 57.7% | 20.2 µM | 14.1 µM | 3.31 µM |  | CC1(c2ccc(-c3[nH]c4cc(F)cc5c4c3CONC5=O)cc2F)CCCN1 (single isomer, unassigned) [Example 26_A] |
|  | 0.176 | 45.6% |  |  |  | 0.0169 µM | CC1(c2ccc(-c3[nH]c4cccc5c4c3CONC5=O)cc2)CCCN1 (stereo not drawn) [Example 6_A] |
|  | 0.035 | 57.1% | 19.2 µM | 35 µM | 15.5 µM | 0.0702 µM | O=C1NOCc2c(-c3ccc(C4CCCN4)c(F)c3)[nH]c3cccc1c23 (stereo not drawn) [Example 11_A] |

| Compound | IC50 [1] | fraction unbound at 4 h, 2 μM [2] | Residual content after 60 min of incubation [3] | IC50 (CYP2D6) | IC50 (CYP3A4-M) | IC50 (CYP2C19) | IC50 [1, 4] |
| --- | --- | --- | --- | --- | --- | --- | --- |
| CC1(c2ccc(-c3[nH]c4cc(F)cc5c4c3CONC5=O)cc2)CCCN1 (stereo not drawn) [Example 25_A] |  | 0.077 | 40.7% | 11.6 µM | 32.9 µM | 8.33 µM | 0.0123 µM |
